Experimental data from publication PMC11218721, “Receptor-Targeted Peptide Conjugates Based on Diphosphines Enable Preparation of ^99mTc and ^188Re Theranostic Agents for Prostate Cancer” (Journal of Nuclear Medicine, 2024).

Columns and labels:
[1] = system: DU145-PSMA+ prostate cancer cells (DU145 cells transfected to express PSMA receptor); experiment: Radiotracer uptake in DU145-PSMA+ prostate cancer cells; assay type: cell-based; conditions: for cellular localization of radioactivity in DU145-PSMA+ cells over time: 15, 30, 60 and 120 min, surface-bound vs internalized fraction; for uptake in DU145-PSMA+ cells: 100 kBq radiotracer, 1 h incubation, percentage added radioactivity, mean ± SD, n = 3–4 biologic repeats in triplicate; for uptake in DU145-PSMA+ cells / uptake in DU145-PSMA+ cells with PMPA block: 37°C; for uptake in DU145-PSMA+ cells with PMPA block: coincubated with PSMA inhibitor PMPA, 1 h
Procedure: (§1) Solutions containing radiotracer (100 kBq in 8–12 μL of phosphate-buffered saline, >95% radiochemical purity) were added to DU145-PSMA+ or LNCaP prostate cancer cells ([22]), and the cells were incubated at 37°C for 1 h. Nonspecific uptake was determined using non–PSMA-expressing cells (DU145, PC3) or by blocking PSMA-expressing cells (DU145-PSMA+, LNCaP) with 2-phosphonomethyl pentanedioic acid (PMPA). After incubation, the cells were washed and samples collected for radioactivity counting. Uptake and localization of ^99mTc radiotracers were measured over time (15, 30, 60, and 120 min) in DU145-PSMA+ or LNCaP cells (supplemental materials).
(§2) To assess the specificity of the new radiotracers for PSMA, [^99mTc]Tc-DP1-PSMAt and [^99mTc]Tc-DP2-PSMAt (100 kBq) were each incubated with DU145-PSMA+ prostate cancer cells (DU145 cells transfected to express PSMA receptor) ([22]). After 1 h of incubation, uptake of each radiotracer was quantified. […] In LNCaP cells, uptake of [^99mTc]Tc-DP1-PSMAt and [^99mTc]Tc-DP2-PSMAt measured 3.7 ± 1.2 %AR and 3.0 ± 0.8 %AR, respectively, whereas uptake of both radiotracers in PC3 cells measured less than 0.3 %AR.
(§3) FIGURE 2. (A) Uptake of radiotracers in PSMA-positive and PSMA-negative prostate cancer cells. (B) Time course uptake and localization of ^99mTc radiotracers in DU145-PSMA cells and LNCaP cells. Data are presented as mean ± SD; n = 3–4 biologic repeats performed in triplicate.

[2] = system: LNCaP prostate cancer cells, which natively express PSMA; experiment: Radiotracer uptake in LNCaP prostate cancer cells; assay type: cell-based; conditions: for cellular localization of radioactivity in LNCaP cells over time: 15, 30, 60 and 120 min, surface-bound vs internalized fraction; for uptake in LNCaP cells: 100 kBq radiotracer, 1 h incubation, percentage added radioactivity, mean ± SD, n = 3–4 biologic repeats in triplicate; for uptake in LNCaP cells / uptake in LNCaP cells with PMPA block: 37°C; for uptake in LNCaP cells with PMPA block: blocked with PMPA, 1 h
Procedure: as §1, §2, §3

[3] = system: parental DU145 cells that do not express PSMA; experiment: Radiotracer uptake in parental DU145 cells (non-PSMA-expressing); assay type: cell-based; conditions: 100 kBq, 1 h, 37°C
Procedure: as §1, §2, §3

PC3 cells = experiment: Radiotracer uptake in PC3 cells (non-PSMA-expressing); assay type: cell-based; conditions: 100 kBq, 1 h, 37°C; cells do not express PSMA
Procedure: as §1, §2, §3

[4] = system: DU145-PSMA+ xenograft tumors; experiment: Ex vivo biodistribution in SCID/beige mice bearing DU145-PSMA+ xenograft tumors; conditions: 2 h after injection; for effect of PMPA coadministration on kidney retention (in words): SCID/beige mice bearing DU145-PSMA+ tumors; for mean difference in spleen retention, radiotracer only vs with PMPA / mean difference in tumor uptake, radiotracer only vs with PMPA: SCID/beige mice; for mean difference in tumor uptake, radiotracer only vs with PMPA: DU145-PSMA+ tumors
Procedure: (§4) All animal experiments were ethically reviewed by an Animal Welfare and Ethical Review Board at either King’s College London or Barts Cancer Institute and were performed in accordance with the Animals (Scientific Procedures) Act 1986 U.K. Home Office regulations governing animal experimentation. Subcutaneous prostate cancer DU145-PSMA+ or DU145 xenografts were produced in SCID/beige mice (male, 7–12 wk old). Subcutaneous LNCaP prostate cancer xenografts were produced in athymic nude mice (Crl:NU(NCr)-Foxn1^nu, male, 6–7 wk old). SPECT/CT and biodistribution studies using ^99mTc and ^188Re radiotracers were performed once a tumor had reached an appropriate size (supplemental materials).
The biodistributions of [^99mTc]Tc-DP1-PSMAt and [^99mTc]Tc-DP2-PSMAt were assessed in male SCID/beige mice bearing DU145-PSMA+ xenograft tumors (Fig. 3). Each mouse was administered either [^99mTc]Tc-DP1-PSMAt or [^99mTc]Tc-DP2-PSMAt and euthanized at 2 h after injection (n = 5), followed by organ harvesting for ex vivo radioactivity counting.
(§5) FIGURE 3. (A) Biodistribution (2 h after injection) of SCID/beige mice bearing DU145-PSMA+ prostate cancer tumors, administered either ^99mTc or ^188Re radiotracers intravenously. To assess specificity of radiotracer uptake, additional groups of mice were also coadministered radiotracer and PMPA (Supplemental Tables 3 and 4). (B) Whole-body SPECT/CT maximum-intensity projections of SCID/beige mice bearing either DU145-PSMA+ tumors or DU145 tumors, administered either [^99mTc]Tc-DP1-PSMAt or [^99mTc]Tc-DP2-PSMAt, 2 h after injection. To inhibit uptake in DU145-PSMA+ tumors, animals were also coadministered PMPA.
To assess the specificity of each radiotracer, separate groups of animals, also bearing DU145-PSMA+ tumors, were coadministered either [^99mTc]Tc-DP1-PSMAt and PMPA or [^99mTc]Tc-DP2-PSMAt and PMPA to inhibit PSMA-mediated uptake of radiotracer (n = 5). […] For [^99mTc]Tc-DP1-PSMAt, coadministration decreased uptake to 0.91 ± 0.29 %ID/g in tumors (compared with administration of [^99mTc]Tc-DP1-PSMAt only: mean difference of 17.12 %ID/g, P = 4 × 10^−4). For [^99mTc]Tc-DP2-PSMAt, coadministration decreased uptake to 0.76 ± 0.45 %ID/g in tumors (compared with administration of [^99mTc]Tc-DP2-PSMAt only: mean difference of 28.62 %ID/g, P = 5 × 10^−4).

DU145-PSMA+ tumors = experiment: SPECT/CT imaging of mice bearing DU145-PSMA+ tumors; assay type: in vivo, SCID/beige mice; conditions: radiotracer only, 2 h and 24 h after injection
Procedure: as §4
as §5, with “PMPA. […]” for “PMPA.”

Row | Compound | cellular localization of radioactivity in DU145-PSMA+ cells over time [1] | uptake in DU145-PSMA+ cells [1] | uptake in DU145-PSMA+ cells with PMPA block [1] | cellular localization of radioactivity in LNCaP cells over time [2] | uptake in LNCaP cells [2] | uptake in LNCaP cells with PMPA block [2] | uptake in parental DU145 cells [3] | uptake in PC3 cells (PC3 cells) | effect of PMPA coadministration on kidney retention (in words) [4] | mean difference in spleen retention, radiotracer only vs with PMPA [4] | mean difference in tumor uptake, radiotracer only vs with PMPA [4] | tumor delineation in SPECT/CT scans (DU145-PSMA+ tumors)
1 | Cc1ccc(P(/C(C(=O)O)=C(/C(=O)NCCOCCOCCOCCOCCC(=O)NCCCC[C@H](NC(=O)N[C@@H](CCC(=O)O)C(=O)O)C(=O)O)P(c2ccc(C)cc2)c2ccc(C)cc2)c2ccc(C)cc2)cc1 [[^99mTc]Tc-DP2-PSMAt] [metal not drawn] | most cell-associated radioactivity was found in the internalized cell fraction | 7.8 ± 1.3 %AR | could be blocked with PMPA | most cell-associated radioactivity was found in the internalized cell fraction | 3.0 ± 0.8 %AR | could also be blocked with PMPA | negligible uptake | less than 0.3 %AR | much less pronounced | 7.4 %ID/g | 28.62 %ID/g | tumors could be clearly delineated
2 | O=C(O)CC[C@H](NC(=O)N[C@@H](CCCCNC(=O)CCOCCOCCOCCOCCNC(=O)/C(=C(\C(=O)O)P(c1ccccc1)c1ccccc1)P(c1ccccc1)c1ccccc1)C(=O)O)C(=O)O [[^99mTc]Tc-DP1-PSMAt] [metal not drawn] | most cell-associated radioactivity was found in the internalized cell fraction | 12.4 ± 2.8 %AR | could be blocked with PMPA | most cell-associated radioactivity was found in the internalized cell fraction | 3.7 ± 1.2 %AR | could also be blocked with PMPA | negligible uptake | less than 0.3 %AR | significantly decreased | 11.8 %ID/g | 17.12 %ID/g | tumors could be clearly delineated
